{"source": "patent US7514434B2", "about": "“Heterocyclic compounds having an oxadiazole moiety and hydro isomers thereof” (Rigel Pharmaceuticals, Inc., priority 2004, dated 2009)"}
{"system": "HCV replicon (5-2 Luc replicon-comprising cells)", "test": "HCV replicon assay (luciferase)", "type": "cell-based", "settings": "5-2 Luc replicon cells, 24 hours with compound; read-out: Replicon IC50 (50% reduction in luciferase activity)", "source_text": "In one embodiment, the inhibitory activity of the compounds can be confirmed in a replicon assay that assesses the ability of a test compound to block or inhibit HCV replication in replicon cells. One example of a suitable replicon assay is the liver cell-line Huh 7-based replicon assay described in Lohmann et al., 1999, Science 285:110-113. A specific example of this replicon assay which utilizes luciferase translation is provided in the Examples Section. In one embodiment of this assay, the amount of test compound that yields a 50% reduction in translation as compared to a control cell (IC50) may be determined.\nThe inhibitory activity of certain exemplary compounds of the invention was confirmed using an HCV replicon assay. The HCV replicon can include such features as the HCV 5′ untranslated region including the HCV IRES, the HCV 3′ untranslated region, selected HCV genes encoding HCV polypeptides, selectable markers, and a reporter gene such as luciferase, GFP, etc. In the assay, actively dividing 5-2 Luc replicon-comprising cells (obtained from Ralf Bartenschlager; see Lohmann et al., 1999, Science 285:110-113) were seeded ata density of between about 5,000 and 7,500 cells/well onto 96 well plates (about 90 μl of cells per well) and incubated at 37° C. and 5% CO2 for 24 hours. Then, the test compound (in a volume of about 10 μl) was added to the wells at various concentrations and the cells were incubated for an additional 24 hours before luciferase assay. Briefly, the Bright-Glo reagent was diluted 1:1 with PBS and 100 μl of diluted reagent was added to each well. After 5 min of incubation at room temperature, luciferin emission was quantified with a luminometer. In this assay, the amount of test compound that yielded a 50% reduction in luciferase activity (IC50) was determined.", "units": {"IC50": "µM"}}
{"smiles": "CC(=O)N1CCN(c2cccc(Cl)c2-c2cc(-c3ccc(-c4noc(C(Cl)Cl)n4)c(Cl)c3)on2)CC1", "note": "[5-Dichloromethyl-3-[4-[3′-[2′-chloro-6′-(N-acetyl-4-piperazinyl)phenyl]-5′-isoxazolyl]-2-chlorophenyl]-1,2,4-oxadiazole]", "IC50": "> 10"}
{"smiles": "CC(=O)N1CCN(c2cccc(Cl)c2-c2cc(-c3ccc(-c4noc(C(Cl)Cl)n4)c(F)c3)on2)CC1", "note": "[5-Dichloromethyl-3-[4-[3′-[2′-chloro-6′-(N-acetyl-4-piperazinyl)phenyl]-5′-isoxazolyl]-2-fluorophenyl]-1,2,4-oxadiazole]", "IC50": "≤ 10"}
{"smiles": "COc1cccc(C(F)(F)F)c1-c1cc(-c2cccc(-c3noc(C(Cl)Cl)n3)c2)on1", "note": "[(I) R2=CF3, R6=OMe, 5-Dichloromethyl-3-[3-[3′-(2′-methoxy-6′-trifluoromethylphenyl)-5′-isoxazolyl]phenyl]-1,2,4-oxadiazole]", "IC50": "> 10"}
{"smiles": "Clc1cccc(Cl)c1-c1cc(-c2cccc(-c3noc(C(Cl)Cl)n3)c2)on1", "note": "[(I) R2=Cl, R6=Cl, 5-Dichloromethyl-3-[3-[3′-(2′,6′-dichlorophenyl)-5′-isoxazolyl]phenyl]-1,2,4-oxadiazole]", "IC50": "≤ 10"}
{"smiles": "Fc1cc(-c2cc(-c3c(Cl)cccc3Cl)no2)ccc1-c1noc(C(Cl)Cl)n1", "note": "[(I) R2=Cl, R6=Cl, R8=F, 5-Dichloromethyl-3-[4-[3′-(2′,6′-dichlorophenyl)-5′-isoxazolyl]-6-fluorophenyl]-1,2,4-oxadiazole]", "IC50": "≤ 10"}
{"smiles": "Clc1cccc(Cl)c1-c1cc(-c2ccccc2-c2noc(C(Cl)Cl)n2)on1", "note": "[(II) R2=Cl, R6=Cl, 5-Dichloromethyl-3-[2-[3′-(2′,6′-dichlorophenyl)-5′-isoxazolyl]phenyl]-1,2,4-oxadiazole]", "IC50": "≤ 10"}
{"smiles": "Fc1cccc(C(F)(F)F)c1-c1cc(-c2ccc(-c3noc(C(Cl)Cl)n3)cc2)on1", "note": "[(III) R2=CF3, R6=F, 5-Dichloromethyl-3-[4-[3′-(2′-fluoro-6′-trifluoromethylphenyl)-5′-isoxazolyl]phenyl]-1,2,4-oxadiazole]", "IC50": "≤ 10"}
{"smiles": "COc1cccc(C(F)(F)F)c1-c1cc(-c2ccc(-c3noc(C(Cl)Cl)n3)cc2)on1", "note": "[(III) R2=CF3, R6=OMe, 5-Dichloromethyl-3-[4-[3′-(2′-methoxy-6′-trifluoromethylphenyl)-5′-isoxazolyl]phenyl]-1,2,4-oxadiazole]", "IC50": "≤ 10"}
{"smiles": "Clc1cccc(Cl)c1-c1cc(-c2ccc(-c3noc(C(Cl)Cl)n3)cc2)on1", "note": "[(III) R2=Cl, R6=Cl, 5-Dichloromethyl-3-[4-[3′-(2′,6′-dichlorophenyl)-5′-isoxazolyl]phenyl]-1,2,4-oxadiazole]", "IC50": "≤ 10"}
{"smiles": "Clc1cc(-c2cc(-c3c(Cl)cccc3Cl)no2)ccc1-c1noc(C(Cl)Cl)n1", "note": "[(III) R2=Cl, R6=Cl, R8=Cl, 5-Dichloromethyl-3-[4-[3′-(2′,6′-dichlorophenyl)-5′-isoxazolyl]-2-chlorophenyl]-1,2,4-oxadiazole]", "IC50": "> 10"}
{"smiles": "Cc1cc(-c2noc(C(Cl)Cl)n2)ccc1-c1cc(-c2c(Cl)cccc2Cl)no1", "note": "[(III) R2=Cl, R6=Cl, R10=Me, 5-Dichloromethyl-3-[4-[3′-(2′,6′-dichlorophenyl)-5′-isoxazolyl]-3-methylphenyl]-1,2,4-oxadiazole]", "IC50": "≤ 10"}
{"smiles": "Fc1cccc(Cl)c1-c1cc(-c2ccc(-c3noc(C(Cl)Cl)n3)cc2)on1", "note": "[(III) R2=Cl, R6=F, 5-Dichloromethyl-3-[4-[3′-(2′-chloro-6′-fluorophenyl)-5′-isoxazolyl]phenyl]-1,2,4-oxadiazole]", "IC50": "≤ 10"}
{"smiles": "Clc1cccc(Cl)c1-c1cc(-c2ccnc(-c3noc(C(Cl)Cl)n3)c2)on1", "note": "[(Ia) R2=Cl, R6=Cl, 5-Dichloromethyl-3-[4-[3′-(2′,6′-dichlorophenyl)-5′-isoxazolyl]-4-pyridyl]-1,2,4-oxadiazole]", "IC50": "> 10"}
{"system": "HCV nonstructural protein NS5A or NS3", "test": "Quantitative Western blot assay in 9-13 replicon cells", "type": "cell-based", "settings": "second symbol of column Replicon/Western, 48 hours with compound, read-out: Western IC50 (50% reduction in the amount of NS5A or NS3 protein)", "method": "Alternatively, the inhibitory activity of the compounds can be confirmed using a quantitative Western immunoblot assay utilizing antibodies specific for HCV non-structural proteins, such as NS3, NS4A NS5A and NS5B. In one embodiment of this assay, replicon cells are treated with varying concentrations of test compound to determine the concentration of test compound that yields a 50% reduction in the amount of a non-structural protein produced as compared to a control sample (IC50). A single non-structural protein may be quantified or multiple non-structural proteins may be quantified. Antibodies suitable for carrying out such immunoblot assays are available commercially (e.g., from BIODESIGN International, Saco, Me.).\nCertain exemplary compounds of the invention were also tested for their ability to inhibit HCV replication using a quantitative Western blot analysis with antibodies specific for the HCV nonstructural protein NS5A or NS3. Actively dividing 9-13 replicon cells were seeded into 6-well plates at a density of 1×10^5 cells/well in a volume of 2 ml/well and incubated at 37° C. and 5% CO2 for 24 hours. Various concentrations of test compounds (in a volume of 10 ul) were added to the wells and the cells incubated for another 48 hours. […] The membrane was then soaked in substrate solution (Pierce) and exposed to a film or quantified using an imager. […]", "units": {"IC50": "µM"}}
{"smiles": "Clc1cccc(Cl)c1-c1cc(-c2cccc(-c3noc(C(Cl)Cl)n3)c2)on1", "note": "[(I) R2=Cl, R6=Cl, 5-Dichloromethyl-3-[3-[3′-(2′,6′-dichlorophenyl)-5′-isoxazolyl]phenyl]-1,2,4-oxadiazole]", "IC50": "≤ 10"}
